Results taken from ChEMBL document CHEMBL3991601, “The target landscape of clinical kinase drugs” (Science, 2017).
Calls of active or inactive are those of the source. Rule as the data show it, for most assays here: actives have a measured Kd and inactives only a lower limit.

How the values were obtained:
Ephrin type-B receptor 3 = target: T1, Ephrin type-B receptor 3 (Homo sapiens, UniProt P54753)
T1 sequence (P54753 whole entry): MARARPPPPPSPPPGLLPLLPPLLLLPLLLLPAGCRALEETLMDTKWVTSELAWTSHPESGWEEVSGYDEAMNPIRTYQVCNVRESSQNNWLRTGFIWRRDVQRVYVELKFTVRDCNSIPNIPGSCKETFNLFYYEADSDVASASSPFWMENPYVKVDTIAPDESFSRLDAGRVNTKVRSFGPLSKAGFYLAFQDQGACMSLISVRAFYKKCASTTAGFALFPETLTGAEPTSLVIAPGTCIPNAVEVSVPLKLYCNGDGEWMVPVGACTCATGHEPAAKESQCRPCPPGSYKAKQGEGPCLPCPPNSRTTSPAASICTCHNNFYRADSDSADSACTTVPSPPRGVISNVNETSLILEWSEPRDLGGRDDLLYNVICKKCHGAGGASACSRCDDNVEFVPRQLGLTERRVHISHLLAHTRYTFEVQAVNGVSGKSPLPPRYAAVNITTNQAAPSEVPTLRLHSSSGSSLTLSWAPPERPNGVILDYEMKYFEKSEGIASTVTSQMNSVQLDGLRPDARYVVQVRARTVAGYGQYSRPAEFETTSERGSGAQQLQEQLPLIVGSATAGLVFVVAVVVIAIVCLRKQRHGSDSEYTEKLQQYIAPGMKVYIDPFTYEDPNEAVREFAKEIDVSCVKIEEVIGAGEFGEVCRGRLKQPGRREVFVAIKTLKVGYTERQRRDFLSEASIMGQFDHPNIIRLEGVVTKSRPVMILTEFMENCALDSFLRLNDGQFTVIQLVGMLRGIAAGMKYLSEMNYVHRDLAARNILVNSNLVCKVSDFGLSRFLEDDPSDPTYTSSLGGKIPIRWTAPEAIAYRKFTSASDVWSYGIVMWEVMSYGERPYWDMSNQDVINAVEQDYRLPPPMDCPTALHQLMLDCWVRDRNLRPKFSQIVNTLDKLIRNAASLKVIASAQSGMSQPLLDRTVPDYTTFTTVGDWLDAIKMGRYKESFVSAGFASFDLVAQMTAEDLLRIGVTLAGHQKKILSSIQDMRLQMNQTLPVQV

[1] = target: T2, Mitogen-activated protein kinase 15 (Homo sapiens, UniProt Q8TD08)
T2 sequence (Q8TD08 whole entry): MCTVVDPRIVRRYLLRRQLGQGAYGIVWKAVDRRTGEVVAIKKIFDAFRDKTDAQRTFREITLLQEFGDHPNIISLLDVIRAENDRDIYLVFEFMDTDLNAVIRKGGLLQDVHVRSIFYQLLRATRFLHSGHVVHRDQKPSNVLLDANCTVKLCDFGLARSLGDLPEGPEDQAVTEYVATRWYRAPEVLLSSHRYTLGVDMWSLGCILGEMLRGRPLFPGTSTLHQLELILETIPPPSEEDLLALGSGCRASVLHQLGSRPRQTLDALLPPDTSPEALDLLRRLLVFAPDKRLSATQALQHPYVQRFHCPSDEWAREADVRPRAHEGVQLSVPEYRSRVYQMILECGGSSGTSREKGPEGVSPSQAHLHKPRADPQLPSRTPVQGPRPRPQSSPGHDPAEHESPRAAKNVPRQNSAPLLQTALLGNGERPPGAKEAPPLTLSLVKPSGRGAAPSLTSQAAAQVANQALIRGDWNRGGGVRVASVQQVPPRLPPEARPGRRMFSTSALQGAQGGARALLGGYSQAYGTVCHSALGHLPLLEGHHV

[2] = target: T3, Serine/threonine-protein kinase 4 (Homo sapiens, UniProt Q13043)
T3 sequence (Q13043 whole entry): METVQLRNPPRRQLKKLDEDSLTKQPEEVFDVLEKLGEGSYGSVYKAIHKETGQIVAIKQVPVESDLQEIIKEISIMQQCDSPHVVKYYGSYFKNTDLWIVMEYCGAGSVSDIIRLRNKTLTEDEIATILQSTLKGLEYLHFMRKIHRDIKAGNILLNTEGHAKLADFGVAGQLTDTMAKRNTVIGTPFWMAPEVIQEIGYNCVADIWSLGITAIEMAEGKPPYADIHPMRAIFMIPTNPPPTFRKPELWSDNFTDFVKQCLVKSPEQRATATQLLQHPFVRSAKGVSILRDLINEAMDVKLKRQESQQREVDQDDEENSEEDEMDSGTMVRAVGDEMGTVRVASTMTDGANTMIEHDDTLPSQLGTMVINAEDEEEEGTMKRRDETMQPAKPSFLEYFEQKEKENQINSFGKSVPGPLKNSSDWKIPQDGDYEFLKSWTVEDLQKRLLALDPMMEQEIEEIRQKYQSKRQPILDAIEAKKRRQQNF

[3] = target: Epithelial discoidin domain-containing receptor 1 (Homo sapiens, UniProt Q08345)
[4] = target: T4, Cytochrome c1, heme protein, mitochondrial (Homo sapiens, UniProt P08574)
T4 sequence (P08574 whole entry): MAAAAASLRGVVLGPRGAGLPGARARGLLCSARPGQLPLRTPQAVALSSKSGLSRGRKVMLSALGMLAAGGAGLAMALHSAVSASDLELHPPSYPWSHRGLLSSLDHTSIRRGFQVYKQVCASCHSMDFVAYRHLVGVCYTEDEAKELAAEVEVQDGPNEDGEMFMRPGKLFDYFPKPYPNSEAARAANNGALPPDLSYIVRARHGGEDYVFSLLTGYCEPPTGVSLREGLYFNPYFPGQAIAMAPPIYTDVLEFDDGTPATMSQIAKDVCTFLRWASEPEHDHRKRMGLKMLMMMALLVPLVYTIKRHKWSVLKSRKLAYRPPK

[5] = target: Cyclin-dependent kinase 12 (Homo sapiens, UniProt Q9NYV4)

Measured: Kd
Also: in the data inactive means no Kd found up to 30 µM.

Sequence of Epithelial discoidin domain-containing receptor 1 (Q08345 whole entry, the tested form may be a part): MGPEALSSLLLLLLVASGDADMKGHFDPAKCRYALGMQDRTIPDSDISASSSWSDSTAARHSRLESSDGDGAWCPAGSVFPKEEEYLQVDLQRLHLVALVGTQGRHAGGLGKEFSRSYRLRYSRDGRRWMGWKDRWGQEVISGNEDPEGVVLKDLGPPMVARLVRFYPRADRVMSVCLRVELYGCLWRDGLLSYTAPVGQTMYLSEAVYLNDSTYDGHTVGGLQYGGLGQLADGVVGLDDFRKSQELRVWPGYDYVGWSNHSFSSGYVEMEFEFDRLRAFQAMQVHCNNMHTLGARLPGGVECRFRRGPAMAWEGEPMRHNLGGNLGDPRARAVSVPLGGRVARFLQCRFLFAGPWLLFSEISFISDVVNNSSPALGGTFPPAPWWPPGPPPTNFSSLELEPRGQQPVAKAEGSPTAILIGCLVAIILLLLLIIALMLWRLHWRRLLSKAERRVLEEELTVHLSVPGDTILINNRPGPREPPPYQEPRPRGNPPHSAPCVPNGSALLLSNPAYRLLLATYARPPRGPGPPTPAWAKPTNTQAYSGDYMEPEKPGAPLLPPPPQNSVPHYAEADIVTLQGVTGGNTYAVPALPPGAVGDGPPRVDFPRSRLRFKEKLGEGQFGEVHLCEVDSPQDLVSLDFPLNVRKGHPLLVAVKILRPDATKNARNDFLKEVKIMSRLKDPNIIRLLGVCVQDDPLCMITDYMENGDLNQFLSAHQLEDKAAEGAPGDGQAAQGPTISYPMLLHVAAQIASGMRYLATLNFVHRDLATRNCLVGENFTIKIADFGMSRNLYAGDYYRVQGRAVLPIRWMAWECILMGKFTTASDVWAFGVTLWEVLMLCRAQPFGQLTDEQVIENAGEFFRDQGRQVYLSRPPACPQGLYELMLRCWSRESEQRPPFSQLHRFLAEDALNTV
Sequence of Cyclin-dependent kinase 12 (Q9NYV4 whole entry): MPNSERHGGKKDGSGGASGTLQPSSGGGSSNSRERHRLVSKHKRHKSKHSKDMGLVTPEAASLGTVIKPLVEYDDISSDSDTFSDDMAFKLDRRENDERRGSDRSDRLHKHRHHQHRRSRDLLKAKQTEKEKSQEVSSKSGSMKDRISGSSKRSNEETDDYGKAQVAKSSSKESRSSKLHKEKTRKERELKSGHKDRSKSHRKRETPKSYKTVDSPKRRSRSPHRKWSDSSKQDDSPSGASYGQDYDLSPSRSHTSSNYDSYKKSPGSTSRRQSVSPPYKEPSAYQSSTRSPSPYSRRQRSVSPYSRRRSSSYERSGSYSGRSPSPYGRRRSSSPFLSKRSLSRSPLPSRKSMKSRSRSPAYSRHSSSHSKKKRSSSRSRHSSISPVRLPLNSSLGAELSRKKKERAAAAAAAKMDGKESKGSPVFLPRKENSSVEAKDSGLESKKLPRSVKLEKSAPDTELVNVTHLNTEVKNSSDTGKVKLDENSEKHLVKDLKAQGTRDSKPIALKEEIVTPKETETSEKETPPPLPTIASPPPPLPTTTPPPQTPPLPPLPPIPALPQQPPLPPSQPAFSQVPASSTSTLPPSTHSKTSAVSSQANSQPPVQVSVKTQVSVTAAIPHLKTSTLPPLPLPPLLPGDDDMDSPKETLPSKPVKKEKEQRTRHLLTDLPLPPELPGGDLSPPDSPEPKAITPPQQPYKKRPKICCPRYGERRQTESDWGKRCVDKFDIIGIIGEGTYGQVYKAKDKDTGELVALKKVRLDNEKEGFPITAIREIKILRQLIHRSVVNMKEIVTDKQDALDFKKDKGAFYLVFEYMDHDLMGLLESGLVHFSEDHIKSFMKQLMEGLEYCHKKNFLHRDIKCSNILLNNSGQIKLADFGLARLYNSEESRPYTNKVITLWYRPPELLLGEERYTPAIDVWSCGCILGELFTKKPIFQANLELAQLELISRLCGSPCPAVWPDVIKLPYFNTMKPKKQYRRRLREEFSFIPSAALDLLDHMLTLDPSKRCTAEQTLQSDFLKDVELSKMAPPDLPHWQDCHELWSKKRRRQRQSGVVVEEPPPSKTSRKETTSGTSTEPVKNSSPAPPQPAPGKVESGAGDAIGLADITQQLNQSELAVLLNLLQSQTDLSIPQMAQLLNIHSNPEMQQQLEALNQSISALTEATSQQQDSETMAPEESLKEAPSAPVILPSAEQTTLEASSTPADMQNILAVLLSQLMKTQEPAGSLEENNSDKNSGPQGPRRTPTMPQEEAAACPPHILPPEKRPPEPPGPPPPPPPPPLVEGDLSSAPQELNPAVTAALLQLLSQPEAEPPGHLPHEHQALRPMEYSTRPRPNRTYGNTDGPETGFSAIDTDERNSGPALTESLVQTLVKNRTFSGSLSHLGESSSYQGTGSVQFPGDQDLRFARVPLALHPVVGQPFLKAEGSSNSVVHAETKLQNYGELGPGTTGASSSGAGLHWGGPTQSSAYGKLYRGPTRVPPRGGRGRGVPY

O=c1sn(-c2cccc3ccccc23)c(=O)n1Cc1ccccc1 [TIDEGLUSIB]
inactive: Ephrin type-B receptor 3 > 30 µM | [1] > 30 µM | [2] > 30 µM | [3] > 30 µM | [4] > 30 µM | [5] > 30 µM

CO[C@H]1C[C@@H]2CC[C@@H](C)[C@@](O)(O2)C(=O)C(=O)N2CCCC[C@H]2C(=O)O[C@H]([C@H](C)C[C@@H]2CC[C@@H](OCCO)[C@H](OC)C2)CC(=O)[C@H](C)/C=C(\C)[C@@H](O)[C@@H](OC)C(=O)[C@H](C)C[C@H](C)/C=C/C=C/C=C/1C [EVEROLIMUS]
inactive: Ephrin type-B receptor 3 > 30 µM | [1] > 30 µM | [2] > 30 µM | [3] > 30 µM | [4] > 30 µM | [5] > 30 µM

CN(C)C(=O)c1cc2cnc(Nc3ccc(N4CCNCC4)cn3)nc2n1C1CCCC1 [RIBOCICLIB]
inactive: Ephrin type-B receptor 3 > 30 µM | [1] > 30 µM | [2] > 30 µM | [3] > 30 µM | [4] > 30 µM | [5] > 30 µM

CC(C)Nc1cc(-c2c[nH]c(C(=O)N[C@H](CO)c3cccc(Cl)c3)c2)c(Cl)cn1 [ULIXERTINIB]
inactive: Ephrin type-B receptor 3 > 30 µM | [1] > 30 µM | [2] > 30 µM | [3] > 30 µM | [4] > 30 µM | [5] > 30 µM
